{"source": "paper PMC6273213", "about": "“Novel Triazole-Quinoline Derivatives as Selective Dual Binding Site Acetylcholinesterase Inhibitors” (Molecules, 2016)", "key": {"hAChE": {"molecular_target": "T1, hAChE (Homo sapiens, UniProt P22303)", "T1 construct": "purchased Sigma-Aldrich; host or cells: HEK 293 cells", "T1 sequence (P22303 32-614)": "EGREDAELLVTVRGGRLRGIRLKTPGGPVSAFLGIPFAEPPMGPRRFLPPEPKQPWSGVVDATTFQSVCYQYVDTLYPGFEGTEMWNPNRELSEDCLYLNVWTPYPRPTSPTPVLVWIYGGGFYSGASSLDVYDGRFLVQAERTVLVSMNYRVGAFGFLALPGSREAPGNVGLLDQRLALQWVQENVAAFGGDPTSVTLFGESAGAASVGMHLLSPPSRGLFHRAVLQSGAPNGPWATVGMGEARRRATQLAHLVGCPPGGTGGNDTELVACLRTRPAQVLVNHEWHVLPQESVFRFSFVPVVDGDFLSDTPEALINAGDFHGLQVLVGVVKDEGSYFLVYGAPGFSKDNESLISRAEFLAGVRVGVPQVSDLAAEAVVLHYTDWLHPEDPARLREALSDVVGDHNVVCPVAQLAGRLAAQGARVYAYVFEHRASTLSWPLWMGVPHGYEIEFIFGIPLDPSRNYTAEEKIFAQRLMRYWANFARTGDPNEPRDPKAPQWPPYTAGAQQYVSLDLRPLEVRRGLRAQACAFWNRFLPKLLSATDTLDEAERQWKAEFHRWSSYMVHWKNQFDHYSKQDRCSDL", "assay": "biochemical", "conditions": "for inhibition at 100 µM: 100 μM compound, substrate ACThI; for inhibition at 100 µM / IC50: human recombinant hAChE; for Mechanism Type hAChE: Lineweaver-Burk plots; for IC50: at least six concentrations, read-out: IC50 ± SEM (μM) hAChE; for Ki: steady-state inhibition constant from replots of reciprocal plots, read-out: Ki ± SEM (μM) hAChE", "protocol": "(§1) Buffer components and all of the chemicals used were all analytical grade materials, and were obtained from Sigma, Merck (Darmstadt, Germany), Synth (São Paulo, Brazil) or Acros (Geel, Belgium). The water used in all of the preparations was purified with a Millipore Milli-Q® system (Millipore, São Paulo, Brazil).\n(§2) The ligand assays were carried out in accordance with the literature, albeit with some modifications. Briefly, the assays were carried out using a 96-well microplate with an Elisa microplate reader. To a final volume of 250 µL, each well was filled with: 125 µL of Ellman’s reagent (3 mM in […] phosphate buffer pH 7.4); 50 µL of buffer TRIS (50 mM, pH 8.0); 25 µL of enzyme solution at the final concentration 0.28 U/mL (in […] phosphate buffer pH 7.4); 25 µL of the ACThI (15 mM) for AChE and 25 µL of the BCThI (15 mM) for BChE; and 25 µL of each inhibitor sample (1 mM), final concentration at 100 µM. The microplate was shaken for 10 s followed by reading the absorbance at 412 nm at 30 s intervals for two minutes. The negative control (compound and absence of ACThI) and a positive control (ACThI and absence of compound) were carried out.\n(§3) The assays were carried out in duplicate.\nIC50 values were independently determined by performing rate measurements for at least six concentrations of the target inhibitor. The nonlinear regression parameters were calculated, and the IC50 was extrapolated."}, "hBChE": {"molecular_target": "T2, hBChE (Homo sapiens, UniProt P06276)", "T2 construct": "hBChE EC 3.1.1.8, 50 units mg^−1 from human erythrocytes; purchased Sigma-Aldrich; host or cells: human erythrocytes", "T2 sequence (P06276 29-602)": "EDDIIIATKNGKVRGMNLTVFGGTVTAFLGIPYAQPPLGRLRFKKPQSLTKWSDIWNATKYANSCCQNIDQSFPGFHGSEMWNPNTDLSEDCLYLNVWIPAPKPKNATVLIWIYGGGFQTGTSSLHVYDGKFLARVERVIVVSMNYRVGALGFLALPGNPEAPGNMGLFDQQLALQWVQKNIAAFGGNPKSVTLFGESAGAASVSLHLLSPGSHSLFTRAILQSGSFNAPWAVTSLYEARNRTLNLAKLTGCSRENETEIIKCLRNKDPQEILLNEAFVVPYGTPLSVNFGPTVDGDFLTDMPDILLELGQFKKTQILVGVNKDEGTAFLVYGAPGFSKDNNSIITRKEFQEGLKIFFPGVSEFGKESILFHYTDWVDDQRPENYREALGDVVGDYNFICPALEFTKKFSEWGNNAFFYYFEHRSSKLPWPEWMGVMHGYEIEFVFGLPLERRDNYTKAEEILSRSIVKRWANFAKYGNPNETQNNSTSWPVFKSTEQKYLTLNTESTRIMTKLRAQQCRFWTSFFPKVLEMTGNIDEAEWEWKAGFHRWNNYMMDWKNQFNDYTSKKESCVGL", "assay": "biochemical", "conditions": "100 μM compound; substrate BCThI", "protocol": "as §1, §2, §3"}}, "note": "Structures can show the parent of a compound that is named as a salt.", "data": [{"smiles": "Cc1ccc2c(c1)C(=O)/C(=C/c1ccc(-c3cn(-c4ccnc5ccccc45)nn3)cc1)C2", "note": "[3d, (E)-6-Methyl-2-(4-(1-(quinolin-4-yl)-1H-1,2,3-triazol-4-yl)benzylidene)-2,3-dihydro-1H-inden-1-one]", "values": [{"measurement": "inhibition at 100 µM", "setting": "hAChE", "result": 9.1, "unit": "%"}, {"measurement": "inhibition at 100 µM", "setting": "hBChE", "result": 0, "unit": "%"}]}, {"smiles": "COc1cc2c(cc1Cl)C/C(=C\\c1ccc(-c3cn(-c4ccnc5ccccc45)nn3)cc1)C2=O", "note": "[3c, (E)-5-Chloro-6-methoxy-2-(4-(1-(quinolin-4-yl)-1H-1,2,3-triazol-4-yl)benzylidene)-2,3-dihydro-1H-inden-1-one]", "values": [{"measurement": "inhibition at 100 µM", "setting": "hAChE", "result": 5.4, "unit": "%"}, {"measurement": "inhibition at 100 µM", "setting": "hBChE", "result": 6.2, "unit": "%"}]}, {"smiles": "COc1ccc2c(c1)C(=O)/C(=C/c1ccc(-c3cn(-c4ccnc5ccccc45)nn3)cc1)C2", "note": "[3h, (E)-6-Methoxy-2-(4-(1-(quinolin-4-yl)-1H-1,2,3-triazol-4-yl)benzylidene)-2,3-dihydro-1H-inden-1-one]", "values": [{"measurement": "inhibition at 100 µM", "setting": "hAChE", "result": 55.7, "unit": "%"}, {"measurement": "Mechanism Type hAChE", "setting": "hAChE", "result": "mixed-type"}, {"measurement": "IC50", "setting": "hAChE", "result": 109, "unit": "µM"}, {"measurement": "Ki", "setting": "hAChE", "result": "245 ± 70", "unit": "µM"}, {"measurement": "inhibition at 100 µM", "setting": "hBChE", "result": 0, "unit": "%"}]}, {"smiles": "O=C1C(=Cc2ccc(-c3cn(-c4ccnc5ccccc45)nn3)cc2)Cc2cc3c(cc21)OCO3", "note": "[3b, (E)-5,6-Methilenedioxy-2-(4-(1-(quinolin-4-yl)-1H-1,2,3-triazol-4-yl)benzylidene)-2,3-dihydro-1H-inden-1-one]", "values": [{"measurement": "inhibition at 100 µM", "setting": "hAChE", "result": 0, "unit": "%"}, {"measurement": "inhibition at 100 µM", "setting": "hBChE", "result": 5.2, "unit": "%"}]}, {"smiles": "COc1cc2c(cc1OC)C(=O)/C(=C/c1ccc(-c3cn(-c4ccnc5ccccc45)nn3)cc1)C2", "note": "[3a, (E)-5,6-Dimethoxy-2-(4-(1-(quinolin-4-yl)-1H-1,2,3-triazol-4-yl)benzylidene)-2,3-dihydro-1H-inden-1-one]", "values": [{"measurement": "inhibition at 100 µM", "setting": "hAChE", "result": 29, "unit": "%"}, {"measurement": "IC50", "setting": "hAChE", "result": "128 ± 25", "unit": "µM"}, {"measurement": "Ki", "setting": "hAChE", "result": "185 ± 29", "unit": "µM"}, {"measurement": "inhibition at 100 µM", "setting": "hBChE", "result": 0, "unit": "%"}]}, {"smiles": "O=C1/C(=C/c2ccc(-c3cn(-c4ccnc5ccccc45)nn3)cc2)Cc2ccc(Cl)cc21", "note": "[3e, (E)-6-Chloro-2-(4-(1-(quinolin-4-yl)-1H-1,2,3-triazol-4-yl)benzylidene)-2,3-dihydro-1H-inden-1-one]", "values": [{"measurement": "inhibition at 100 µM", "setting": "hAChE", "result": 37.7, "unit": "%"}, {"measurement": "IC50", "setting": "hAChE", "result": "147 ± 15", "unit": "µM"}, {"measurement": "Ki", "setting": "hAChE", "result": "530 ± 150", "unit": "µM"}, {"measurement": "inhibition at 100 µM", "setting": "hBChE", "result": 0, "unit": "%"}]}, {"smiles": "COc1cc2c(cc1OC)C(=O)C(CC1CCN(Cc3ccccc3)CC1)C2", "note": "(stereo not shown) [Donepezil, donepezil hydrochloride monohydrate, reference compound]", "values": [{"measurement": "inhibition at 100 µM", "setting": "hBChE", "result": 11.1, "unit": "%"}]}, {"smiles": "COc1ccc2c(c1)C/C(=C\\c1ccc(-c3cn(-c4ccnc5ccccc45)nn3)cc1)C2=O", "note": "[3g, (E)-5-Methoxy-2-(4-(1-(quinolin-4-yl)-1H-1,2,3-triazol-4-yl)benzylidene)-2,3-dihydro-1H-inden-1-one]", "values": [{"measurement": "inhibition at 100 µM", "setting": "hAChE", "result": 48.1, "unit": "%"}, {"measurement": "Mechanism Type hAChE", "setting": "hAChE", "result": "mixed-type"}, {"measurement": "IC50", "setting": "hAChE", "result": "114 ± 10", "unit": "µM"}, {"measurement": "Ki", "setting": "hAChE", "result": "220 ± 60", "unit": "µM"}, {"measurement": "inhibition at 100 µM", "setting": "hBChE", "result": 0.2, "unit": "%"}]}]}
